# Measured values: patent publication US7083940B2, “Pregnancy-associated plasma protein-A2 (PAPP-A2)” (Como Biotech ApS, priority 2000, dated 2006)
# Test system: rIGFBP-5
# Assay: Ligand blotting with radiolabeled IGF-II, activity of PAPP-A2 against IGFBP-5
# Assay type: biochemical
# Conditions: medium from cells transfected with pPA2
# Description: Medium from 293T cells transfected with empty vector (−), or cDNA encoding PAPP-A2 (pPA2) (+) was incubated with each of the six IGFBPs (BP1–BP6), and the activity was assessed by ligand blotting using radiolabeled IGF-II.
# Ligand blotting (Conover et al., 1993, J Clin Invest 91, 1129–37) with radiolabeled IGF-II (Bachem) was used to assay for activity against IGFBP-1 (from HepG2 conditioned medium), rIGFBP-2 (GroPep), rIGFBP-3 (gift of D. Powell), rIGFBP-4 (Austral), rIGFBP-5 (gift of D. Andress), and rIGFBP-6 (Austral). […] Experiments were carried out with media from cells transfected with pPA2 or empty vector.
substance,measurement,value
"PAPP-A2: recombinant pregnancy-associated plasma protein-A2, SEQ ID NO:2, metzincin metalloproteinase expressed in 293T cells",Dependence of cleavage on IGF,independent of the presence of IGF
